Assay results taken from US9453031B2, “Chemical entities” (Fundación Centro Nacional de Investigaciones Oncológicas …, priority 2013, dated 2016).

Biological target: ATM (Homo sapiens (Human), UniProt Q13315)
Test: Cellular ATM inhibition, pCHK2 Thr68 after UV mimetic 4NQO
Type: cell-based
Conditions: HT-29, read-out: UV mimetic inhibition of CHK2P at 10 μM (%); 10 μM compound, 3 μM 4NQO, HT29 cells
Excerpt: (§1) ATM and ATR have distinct and overlapping responses to DNA damage. They must participate together and responses must be coordinated. Both pathways may be activated by ionizing radiation, and UV. As UV treatment is not practical for use in a high throughput cell assay, the UV mimetic 4NQO (Sigma) was chosen to activate the ATR and ATM DNA damage response pathway.
(§2) Chk1, a downstream protein kinase of ATR, has a key role in DNA damage checkpoint control, as well as Chk2 downstream of ATM. […] This assay measures a decrease in phosphorylation of Chk1 (Ser 345) and […] in HT29 colon adenocarcinoma cells following treatment with compound and the UV mimetic 4NQO. Compounds at 1 mM were created by diluting in 100% DMSO and then diluted 1:100 into assay media (RPMI, 10% FCS, 1% glutamine). Cells were plated in 6 well Costar plates at 5×10^5 cells per mL in 2 mL RPMI, 10% FCS, 1% glutamine and grown for 24 hrs. Following addition of compound the cells were incubated for 60 minutes. A final concentration of 3 μM 4NQO (prepared in 100% DMSO) was then added and the cells incubated for a further 60 mins. The cells are lysed and pChk1 Ser345 and pCHK2 Thr68 (Cell Signaling Technology, #2661) versus total CHK1 and CHK2 (Santa Cruz Biotechnology, se-5278) respectively has analysed by western blot as described above. The percentage of phosphorylated CHK1 versus total CHK1 or p-CHK2 versus total CHK2 in cells treated with 4NQO was taken as hundred percent of phosphorylation. The percentage of CHK1 or CHK2 phosphorylation is finally plotted against concentration for each compound and EC50s for intracellular ATR inhibition are calculated using ActivityBase from IDBS.

Sequence of ATM (Q13315 whole entry): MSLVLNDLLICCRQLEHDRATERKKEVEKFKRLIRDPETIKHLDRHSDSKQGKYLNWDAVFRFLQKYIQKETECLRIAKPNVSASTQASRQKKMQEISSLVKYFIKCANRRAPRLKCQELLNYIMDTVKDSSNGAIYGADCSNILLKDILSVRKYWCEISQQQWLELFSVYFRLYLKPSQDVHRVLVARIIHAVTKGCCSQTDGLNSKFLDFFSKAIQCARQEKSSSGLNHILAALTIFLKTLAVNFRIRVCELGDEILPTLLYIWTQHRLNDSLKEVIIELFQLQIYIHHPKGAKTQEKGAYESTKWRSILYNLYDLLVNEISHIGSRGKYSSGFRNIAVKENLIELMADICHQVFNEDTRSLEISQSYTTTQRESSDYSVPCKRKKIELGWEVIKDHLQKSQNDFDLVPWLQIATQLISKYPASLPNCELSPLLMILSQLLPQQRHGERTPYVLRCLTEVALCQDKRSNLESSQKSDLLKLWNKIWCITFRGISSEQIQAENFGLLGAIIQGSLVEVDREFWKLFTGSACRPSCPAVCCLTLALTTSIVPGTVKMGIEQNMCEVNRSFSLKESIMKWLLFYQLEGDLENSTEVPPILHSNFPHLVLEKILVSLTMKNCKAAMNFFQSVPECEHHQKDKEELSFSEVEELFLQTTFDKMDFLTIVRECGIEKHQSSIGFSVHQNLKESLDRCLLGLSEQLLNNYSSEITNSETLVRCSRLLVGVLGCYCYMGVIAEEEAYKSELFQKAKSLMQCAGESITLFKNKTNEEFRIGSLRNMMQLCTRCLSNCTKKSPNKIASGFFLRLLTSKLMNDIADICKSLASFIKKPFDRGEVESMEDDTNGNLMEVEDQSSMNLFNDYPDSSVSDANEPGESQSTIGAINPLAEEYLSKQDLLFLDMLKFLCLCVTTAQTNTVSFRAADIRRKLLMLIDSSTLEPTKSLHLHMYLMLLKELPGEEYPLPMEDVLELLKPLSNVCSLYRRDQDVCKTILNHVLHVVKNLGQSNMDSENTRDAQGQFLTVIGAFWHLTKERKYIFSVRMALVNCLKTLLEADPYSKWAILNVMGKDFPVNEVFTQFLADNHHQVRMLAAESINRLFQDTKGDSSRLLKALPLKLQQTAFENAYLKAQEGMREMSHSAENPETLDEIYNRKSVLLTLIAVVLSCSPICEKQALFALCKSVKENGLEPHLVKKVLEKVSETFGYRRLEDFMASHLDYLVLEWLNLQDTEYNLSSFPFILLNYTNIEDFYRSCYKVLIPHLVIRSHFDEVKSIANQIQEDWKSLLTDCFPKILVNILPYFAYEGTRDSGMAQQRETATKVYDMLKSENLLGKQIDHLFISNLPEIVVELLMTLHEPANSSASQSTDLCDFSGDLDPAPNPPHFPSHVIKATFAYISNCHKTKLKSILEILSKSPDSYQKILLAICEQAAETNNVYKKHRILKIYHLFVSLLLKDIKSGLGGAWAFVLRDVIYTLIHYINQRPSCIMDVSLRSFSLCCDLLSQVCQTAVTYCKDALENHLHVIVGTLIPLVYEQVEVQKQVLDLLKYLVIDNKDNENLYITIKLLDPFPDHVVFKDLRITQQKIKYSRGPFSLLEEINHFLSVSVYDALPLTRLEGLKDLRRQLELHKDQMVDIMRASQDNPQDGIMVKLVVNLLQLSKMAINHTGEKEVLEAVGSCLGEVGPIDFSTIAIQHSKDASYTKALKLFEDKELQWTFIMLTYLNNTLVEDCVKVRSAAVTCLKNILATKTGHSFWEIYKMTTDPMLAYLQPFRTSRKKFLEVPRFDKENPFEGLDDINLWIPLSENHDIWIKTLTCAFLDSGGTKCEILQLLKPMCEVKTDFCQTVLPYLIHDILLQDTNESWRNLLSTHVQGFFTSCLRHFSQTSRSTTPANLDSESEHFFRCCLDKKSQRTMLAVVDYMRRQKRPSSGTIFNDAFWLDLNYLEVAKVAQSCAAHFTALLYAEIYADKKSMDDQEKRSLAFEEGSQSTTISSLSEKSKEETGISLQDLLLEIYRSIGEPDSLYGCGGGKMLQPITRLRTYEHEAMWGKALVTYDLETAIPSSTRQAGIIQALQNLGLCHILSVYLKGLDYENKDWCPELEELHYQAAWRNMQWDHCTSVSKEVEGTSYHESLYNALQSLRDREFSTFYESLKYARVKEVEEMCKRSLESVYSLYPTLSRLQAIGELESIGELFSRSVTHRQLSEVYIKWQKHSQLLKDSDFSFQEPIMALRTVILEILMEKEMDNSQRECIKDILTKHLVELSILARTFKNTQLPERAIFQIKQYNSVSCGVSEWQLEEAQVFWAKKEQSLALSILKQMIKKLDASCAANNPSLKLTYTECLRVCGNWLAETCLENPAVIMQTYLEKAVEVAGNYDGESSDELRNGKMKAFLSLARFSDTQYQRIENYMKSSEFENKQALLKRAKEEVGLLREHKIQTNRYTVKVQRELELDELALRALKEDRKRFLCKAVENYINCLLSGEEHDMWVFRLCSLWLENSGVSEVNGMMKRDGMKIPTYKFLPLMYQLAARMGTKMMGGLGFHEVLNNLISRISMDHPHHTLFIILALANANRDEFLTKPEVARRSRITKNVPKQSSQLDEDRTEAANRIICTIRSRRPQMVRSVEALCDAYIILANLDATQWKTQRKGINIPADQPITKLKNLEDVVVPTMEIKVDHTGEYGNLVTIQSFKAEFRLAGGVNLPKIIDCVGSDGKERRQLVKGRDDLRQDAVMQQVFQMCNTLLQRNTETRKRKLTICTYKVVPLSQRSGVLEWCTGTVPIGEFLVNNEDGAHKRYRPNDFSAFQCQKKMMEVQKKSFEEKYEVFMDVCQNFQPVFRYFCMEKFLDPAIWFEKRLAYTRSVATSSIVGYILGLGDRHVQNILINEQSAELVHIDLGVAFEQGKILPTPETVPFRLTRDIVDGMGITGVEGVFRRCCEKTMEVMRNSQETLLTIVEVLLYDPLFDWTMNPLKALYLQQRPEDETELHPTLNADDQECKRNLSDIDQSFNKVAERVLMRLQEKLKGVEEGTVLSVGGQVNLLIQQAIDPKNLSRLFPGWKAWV

| Structure (SMILES) | inhibition at 10 µM [%] |
| --- | --- |
| C[C@@H]1CN(CC(=O)Nc2ccc3c(c2)Cc2cccc(-c4cc(=O)cc(N5CCOCC5)o4)c2S3)C[C@H](C)O1 [ATM inhibitor KU-60019, reference compound] | 99 |
| CS(=O)(=O)C1(c2nc(-c3cccc4[nH]ccc34)nc3c2OCC2COCCN32)CCOCC1 (centres unmarked) [Example 2] | 0 |
| CS(=O)(=O)C1(c2nc(-c3cccc4[nH]ccc34)nc3c2OC[C@@H]2COCCN32)CCOCC1 [Example 3] | 0 |
| O=S(=O)(Cc1nc(-c2cccc3[nH]ccc23)nc2c1OCC1COCCN21)C(F)(F)F (centres unmarked) [Example 5] | 0 |
| CNc1nc2ccccc2n1-c1nc2c(c(C(C)(C)S(C)(=O)=O)n1)OCC1COCCN21 (centres unmarked) [Example 8] | 25 |
| CC(C)(c1nc(-c2cccc3[nH]ccc23)nc2c1OCC1COCCN21)S(C)(=O)=O (centres unmarked) [Example 1] | 0 |
| CS(=O)(=O)C1(c2nc(-c3cccc4[nH]ccc34)nc3c2OC[C@H]2COCCN32)CCOCC1 [Example 10] | 25 |

Biological target: T1, ATR (Homo sapiens (Human), UniProt Q13535)
Test: Cellular ATR inhibition, pChk1 Ser345 after UV mimetic 4NQO
Type: cell-based
Conditions: HT-29, read-out: UV mimetic inhibition of CHK1P at 10 μM (%); 10 μM compound, 3 μM 4NQO, HT29 cells
Excerpt: as §1, §2

| Structure (SMILES) | inhibition at 10 µM [%] |
| --- | --- |
| C[C@@H]1CN(CC(=O)Nc2ccc3c(c2)Cc2cccc(-c4cc(=O)cc(N5CCOCC5)o4)c2S3)C[C@H](C)O1 [ATM inhibitor KU-60019, reference compound] | 38 |
| CS(=O)(=O)C1(c2nc(-c3cccc4[nH]ccc34)nc3c2OCC2COCCN32)CCOCC1 (centres unmarked) [Example 2] | 98 |
| CS(=O)(=O)C1(c2nc(-c3cccc4[nH]ccc34)nc3c2OC[C@@H]2COCCN32)CCOCC1 [Example 3] | 98 |
| O=S(=O)(Cc1nc(-c2cccc3[nH]ccc23)nc2c1OCC1COCCN21)C(F)(F)F (centres unmarked) [Example 5] | 98 |
| CNc1nc2ccccc2n1-c1nc2c(c(C(C)(C)S(C)(=O)=O)n1)OCC1COCCN21 (centres unmarked) [Example 8] | 98 |
| CC(C)(c1nc(-c2cccc3[nH]ccc23)nc2c1OCC1COCCN21)S(C)(=O)=O (centres unmarked) [Example 1] | 99 |
| CS(=O)(=O)C1(c2nc(-c3cccc4[nH]ccc34)nc3c2OC[C@H]2COCCN32)CCOCC1 [Example 10] | 95 |

Biological target: PI3K (p110α/p85α) (Homo sapiens (Human), UniProt P42336)
Test: PI3K alpha activity assay (ADP Hunter Plus)
Type: biochemical
Conditions: 50 μM ATP, 30 μM PIP2; read-out: PI3Kα IC50
Experimental: The kinase activity was measured by using the commercial ADP Hunter™ Plus assay available from DiscoveRx (#33-016), which is a homogeneous assay to measure the accumulation of ADP, a universal product of kinase activity. […] The reaction was carried out for 1 hour at 25° C. Reagent A and B were sequentially added to the wells and plates were incubated for 30 min at 37° C. Fluorescence counts were read in a Victor instrument (Perkin Elmer) with the recommended settings (544 and 580 nm as excitation and emission wavelengths, respectively).

Sequence of PI3K (p110α/p85α) (P42336 whole entry): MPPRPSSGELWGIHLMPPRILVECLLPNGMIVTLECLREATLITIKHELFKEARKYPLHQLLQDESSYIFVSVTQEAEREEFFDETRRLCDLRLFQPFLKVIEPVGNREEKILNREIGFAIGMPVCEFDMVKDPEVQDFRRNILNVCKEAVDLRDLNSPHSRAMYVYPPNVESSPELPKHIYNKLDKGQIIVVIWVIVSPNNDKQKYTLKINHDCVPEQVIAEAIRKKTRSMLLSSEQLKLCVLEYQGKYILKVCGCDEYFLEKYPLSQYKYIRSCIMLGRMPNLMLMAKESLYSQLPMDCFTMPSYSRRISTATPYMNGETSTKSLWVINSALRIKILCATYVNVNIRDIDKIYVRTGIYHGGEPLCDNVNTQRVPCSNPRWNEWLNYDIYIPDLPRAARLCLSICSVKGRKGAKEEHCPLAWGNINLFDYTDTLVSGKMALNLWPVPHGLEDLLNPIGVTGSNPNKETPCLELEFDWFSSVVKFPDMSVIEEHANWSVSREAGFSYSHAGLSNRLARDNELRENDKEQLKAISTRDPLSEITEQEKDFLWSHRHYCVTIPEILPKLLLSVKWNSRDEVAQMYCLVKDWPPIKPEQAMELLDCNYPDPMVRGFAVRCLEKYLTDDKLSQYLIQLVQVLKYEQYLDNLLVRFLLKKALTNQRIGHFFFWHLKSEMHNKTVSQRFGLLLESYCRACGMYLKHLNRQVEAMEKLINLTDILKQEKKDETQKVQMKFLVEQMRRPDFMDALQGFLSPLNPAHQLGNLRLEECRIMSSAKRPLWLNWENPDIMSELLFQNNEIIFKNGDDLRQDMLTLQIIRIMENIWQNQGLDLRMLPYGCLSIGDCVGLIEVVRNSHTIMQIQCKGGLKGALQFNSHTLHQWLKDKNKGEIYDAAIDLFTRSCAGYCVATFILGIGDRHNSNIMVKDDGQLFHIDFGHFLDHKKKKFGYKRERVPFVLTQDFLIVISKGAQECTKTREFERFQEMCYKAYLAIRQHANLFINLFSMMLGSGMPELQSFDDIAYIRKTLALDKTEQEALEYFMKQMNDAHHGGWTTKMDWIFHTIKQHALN
Sequence of PI3K (p110α/p85α) (P27986 whole entry partner): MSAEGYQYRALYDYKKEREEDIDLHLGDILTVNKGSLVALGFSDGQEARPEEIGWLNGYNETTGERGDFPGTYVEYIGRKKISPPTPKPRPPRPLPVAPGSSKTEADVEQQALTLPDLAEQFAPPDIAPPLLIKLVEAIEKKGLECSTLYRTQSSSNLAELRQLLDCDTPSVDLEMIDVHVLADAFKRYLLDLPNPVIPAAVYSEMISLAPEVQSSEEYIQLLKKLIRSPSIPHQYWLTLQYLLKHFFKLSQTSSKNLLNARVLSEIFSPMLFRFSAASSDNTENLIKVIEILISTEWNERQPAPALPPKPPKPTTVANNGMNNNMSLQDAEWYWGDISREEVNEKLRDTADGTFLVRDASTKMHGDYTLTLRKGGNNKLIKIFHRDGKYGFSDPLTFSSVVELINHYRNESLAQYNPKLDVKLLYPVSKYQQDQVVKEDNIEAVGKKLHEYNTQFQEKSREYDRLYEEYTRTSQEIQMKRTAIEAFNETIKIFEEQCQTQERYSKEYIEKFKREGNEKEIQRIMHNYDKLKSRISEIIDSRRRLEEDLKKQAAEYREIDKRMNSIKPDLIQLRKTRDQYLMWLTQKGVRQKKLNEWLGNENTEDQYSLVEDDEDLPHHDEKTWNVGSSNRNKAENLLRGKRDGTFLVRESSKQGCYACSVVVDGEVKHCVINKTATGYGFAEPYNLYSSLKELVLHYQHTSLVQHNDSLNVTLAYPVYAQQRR

| Structure (SMILES) | IC50 [µM] |
| --- | --- |
| CNc1nc2ccc(C#N)cc2n1-c1nc2c(c(C(C)(C)S(C)(=O)=O)n1)OC[C@@H]1COCCN21 [Example 114] | 50 |

Test system: Eμmyc lymphoma cells
Test: In vivo efficacy, mice injected intravenously with Eμmyc lymphoma cells
Conditions: 25 mg/kg oral once daily, day 23, compared to vehicle, C57BL/6 mice
Experimental: The efficacy of compounds of the invention alone or in combination with chemotherapeutics agents were measured in vivo by implanting allografts or xenografts of cancer cells in rodents and treating the tumour-bearing animals with the compounds alone or in combination with chemotherapeutics agents.
Recipient mice were monitored for tumor formation by the presence of tumoral cells in the blood (LDH measurement), and twice a week by palpation of the pre-scapular and cervical lymph-nodes, once a week by sonography measurement of thoracic lymph-nodes size. […] Efficacy of the treatment was done evaluating the relative weight of all tumoral tissues (spleen, salivary lymph-nodes, mammary lymph-nodes, thymus and mesenteric lymph-nodes) versus body weight substrating the relative weight of same normal tissues. Bars represent standard error of the mean (n=8).

| Structure (SMILES) | tumor growth inhibition (TGI) [%] |
| --- | --- |
| CS(=O)(=O)C1(c2nc(-c3cccc4[nH]ccc34)nc3c2OC[C@@H]2COCCN32)CCOCC1 [Example 3] | 46 |

Biological target: CYP 2C19 (Homo sapiens (Human), UniProt P33261)
Test: CYP inhibition assay (P450-Glo)
Type: in vitro ADME
Conditions: recombinant CYP

| Structure (SMILES) | IC50 [µM] |
| --- | --- |
| CS(=O)(=O)C1(c2nc(-c3cccc4[nH]ccc34)nc3c2OC[C@@H]2COCCN32)CCOCC1 [Example 3] | > 50 |

Biological target: CYP 2C9 (Homo sapiens (Human), UniProt P11712)
Test: CYP inhibition assay (P450-Glo)
Conditions: read-out: P450-2C9 IC50; recombinant CYP

| Structure (SMILES) | IC50 [µM] |
| --- | --- |
| CS(=O)(=O)C1(c2nc(-c3cccc4[nH]ccc34)nc3c2OC[C@@H]2COCCN32)CCOCC1 [Example 3] | > 50 |

Biological target: CYP 3A4 (Homo sapiens (Human), UniProt P08684)
Test: CYP inhibition assay (P450-Glo)
Conditions: read-out: P450-3A4 IC50; recombinant CYP

| Structure (SMILES) | IC50 [µM] |
| --- | --- |
| CS(=O)(=O)C1(c2nc(-c3cccc4[nH]ccc34)nc3c2OC[C@@H]2COCCN32)CCOCC1 [Example 3] | > 50 |

Biological target: DNA-PK (Homo sapiens (Human), UniProt P78527)
Test: DNAPK activity assay (ADP Hunter Plus)
Type: biochemical
Conditions: 75 μM ATP
Experimental: The kinase activity was measured by using the commercial ADP Hunter™ Plus assay available from DiscoveRx (#90-0083), which is a homogeneous assay to measure the accumulation of ADP, a universal product of kinase activity. The enzyme, DNA-PK was purchased from Promega (#V5811). The assay was done following the manufacturer recommendations with slight modifications: Mainly the kinase buffer was replace by 15 mM HEPES, pH 7.5, 10 mM MgCl2, 20 mM NaCl, 1 mM EGTA, 0.1 mg/mL BGG, 0.02% Tween 20. The DNA-PK was assayed in a titration experiment to determine the optimal protein concentration for the inhibition assay. To calculate the […] of the Compounds, serial 1:3 dilutions of the compounds were added to the enzyme at a fixed concentration (2 U/μL). The enzyme was preincubated with the inhibitor and 200 μM DNA substrate and then ATP was added to a final 75 μM concentration. Reaction was carried out for 1 hour at 37° C. Reagent A and B were sequentially added to the wells and plates were incubated for 30 min at RT. Fluorescence counts were read in a EnVision instrument (Perkin Elmer) with the recommended settings (550 and 590 nm as excitation and emission wavelengths, respectively).

| Structure (SMILES) | IC50 [µM] |
| --- | --- |
| CNc1nc2ccc(C#N)cc2n1-c1nc2c(c(C(C)(C)S(C)(=O)=O)n1)OC[C@@H]1COCCN21 [Example 114] | 10 |

Biological target: T1, ATR
Test: Cellular ATR inhibition, western blot of CHK1(S345) phosphorylation in hydroxyurea treated cells
Type: cell-based
Conditions: HT29 cells, hydroxyurea 2.5 mM
Experimental: In addition to the selective system described above, Example compounds presented here were screened for their ability to inhibit intracellular ATR using a western blot assay to detect phosphorylation of the ATR substrate CHK1(S345) in hydroxyurea treated cells. HT29 cells are plated at 500,000 cells per well in 6-well plates in RPMI media (Sigma R6504) supplemented with 10% foetal bovine serum (Sigma F7524), Penicillin/Streptomycin solution diluted 1:100 (Gibco 15070-063), and fungizone (Gibco, 15290-018), and allowed to adhere overnight at 37° C. in 5% CO2. Compounds are then added to the cell media from a final concentration of 10 μM in 3-fold serial dilutions and the cells are incubated at 37° C. in 5% CO2. After 15 min, hydroxyurea (Sigma H8627) is added to a final concentration of 2.5 mM. After 30 min of treatment with hydroxyurea, the cells are washed in PBS, lysed adding 50 μl of in protein lysis buffer (50 mM Tris pH 7.5, 150 mM NaCl, 1% IGEPAL CO-630 (Sigma, Ref. 542334-100G-A), Phospho Stop (Roche, Ref. 04906837001) and Complete Mini EDTA free (Roche, Ref. 11836170001)). The protein content of the lysates was determined by the modified method of Bradford (Sigma, Ref. B6916). The proteins were resolved by SDS-PAGE and transferred to nitrocellulose membrane (VWR International Eurolab, Ref. 732-4007). The membranes were incubated overnight at 4° C. with antibodies specific for total CHK1 (Santa Cruz Biotechnology, sc-8404), phosphoserine-345 CHK1 (Cell Signaling Technology #2348) they were washed and then incubated with IRDye800 conjugated anti-mouse (Pierce/Cultek, 35521) and Alexa Fluor 680 goat anti-rabbit IgG secondary antibodies (Invitrogen, A21076). The bands were visualized and quantified using an Odyssey infrared imaging system (Li-Cor Biosciences). The percentage of phosphorylated CHK1 vs total CHK1 in cells treated with hydroxyurea was taken as hundred percent of phosphorylation. The percentage of CHK1 phosphorylation is finally plotted against concentration for each compound and EC50s for intracellular ATR inhibition are calculated using ActivityBase from IDBS.

| Structure (SMILES) | EC50 [µM] |
| --- | --- |
| CS(=O)(=O)C1(c2nc(-c3cccc4[nH]ccc34)nc3c2OCC2COCCN32)CCOCC1 (centres unmarked) [Example 2] | < 0.1 |
| CS(=O)(=O)C1(c2nc(-c3cccc4[nH]ccc34)nc3c2OC[C@@H]2COCCN32)CCOCC1 [Example 3] | < 0.1 |
| O=S(=O)(Cc1nc(-c2cccc3[nH]ccc23)nc2c1OCC1COCCN21)C(F)(F)F (centres unmarked) [Example 5] | 0.1 to 1 |
| CNc1nc2ccccc2n1-c1nc2c(c(C(C)(C)S(C)(=O)=O)n1)OCC1COCCN21 (centres unmarked) [Example 8] | < 0.1 |
| CC(C)(c1nc(-c2cccc3[nH]ccc23)nc2c1OCC1COCCN21)S(C)(=O)=O (centres unmarked) [Example 1] | < 0.1 |
| CS(=O)(=O)C1(c2nc(-c3cccc4[nH]ccc34)nc3c2OC[C@H]2COCCN32)CCOCC1 [Example 10] | 0.1 to 1 |

Same assay, conditions: HT29 cells, hydroxyurea […]

| Structure (SMILES) | EC50 [µM] |
| --- | --- |
| CNc1nc2ccc(C#N)cc2n1-c1nc2c(c(C(C)(C)S(C)(=O)=O)n1)OC[C@@H]1COCCN21 [Example 114] | > 1 |

Biological target: CYP 1A2 (Homo sapiens (Human), UniProt P05177)
Test: CYP inhibition assay (P450-Glo)
Type: in vitro ADME
Conditions: recombinant CYP

| Structure (SMILES) | IC50 [µM] |
| --- | --- |
| CS(=O)(=O)C1(c2nc(-c3cccc4[nH]ccc34)nc3c2OC[C@@H]2COCCN32)CCOCC1 [Example 3] | > 50 |

Biological target: mTOR (Homo sapiens (Human), UniProt P42345)
Test: mTOR activity assay (LanthaScreen)
Type: biochemical
Conditions: not given
Experimental: The enzymatic mTOR activity was measured using a LanthaScreen™ kinase activity assay (Invitrogen). The enzyme was purchased from Invitrogen (PV4754), as well as the GFP-labelled substrate (4EBP1-GFP; PV4759) and the Tb-antip4EBP1(pThr46) antibody (PV4757). The assay was performed in 50 Mm HEPES buffer, pH 7.5, containing 1.5 mM MnCl2, 10 mM MgCl2, 1 mM EGTA, 2.5 mM DTT and 0.01% Tween-20. The concentration of the assay components were the following: 0.24 nM mTOR kinase, 400 nM 4EBP1-GFP, […] and serial dilutions of the compound (inhibitor) to be evaluated. After 1 h incubation at room temperature, 20 mM EDTA was used to stop the reaction and terbium-labelled antibody (4 nM) added to detect phosphorylated product. The antibody associates with the phosphorylated product resulting in an increased TR-FRET value. The TR-FRET value (a dimensionless number) was calculated as the ratio of the acceptor signal (GFP, emission at 520 nm) to the donor signal (terbium, emission at 495 nm).

| Structure (SMILES) | IC50 [µM] |
| --- | --- |
| CNc1nc2ccc(C#N)cc2n1-c1nc2c(c(C(C)(C)S(C)(=O)=O)n1)OC[C@@H]1COCCN21 [Example 114] | 10 |
